Key:
IMQ-induced psoriasis = IMQ-induced psoriasis in mice; type: in vivo, mouse; details: 60 mg/kg oral daily
Description: Six-week-old female C57BL/6J mice were assigned to the following treatment groups: vehicle (n = 5), IMQ (n = 5), ETI41 (n = 4) and ETI60 (n = 5). The mice were obtained from Orient Bio to evaluate the effects of ETI41 and ETI60 on induced psoriasis-like symptoms. This study was approved by the Institutional Animal Care and Use Committee (IACUC; approval no. 2014-0007). Psoriasis was induced using Aldara cream (3M Pharmaceuticals), which was applied topically at 62.5 mg/cm² daily from the day after hair removal until the fourth day. Mice were orally administered 60 mg/kg ETI41 or ETI60 daily commencing on the second day of induction. For IL-23-induced psoriasis, the mice were assigned to the following treatment groups: vehicle (n = 5), IL-23 (n = 5), ETI41 (n = 5), ETI60 (n = 5) and anti-IL-17 Ab (n = 5). Recombinant mouse IL-23 (0.25 mg/kg; BioLegend) was administered via intradermal injection around the ear daily, starting the day after hair removal and continuing until the eighth day. Positive control mice received intraperitoneal (IP) injections of 30 mg/kg anti-mouse IL-17A antibody (BioLegend) on days 2, 5 and 8, while test group mice were administered daily oral doses of 60 mg/kg of ETI41 or ETI60. Changes in body weight and Psoriasis Area and Severity Index (PASI) scores (erythema, scaling and thickness) were recorded daily. Mice were initially anesthetized in an induction chamber with a gas mixture of 4% isoflurane in 70:30 […] and O2, delivered at a flow rate of 0.8 l/min. Subsequently, the isoflurane concentration was reduced to 2%, and the mice were euthanized under anesthesia via endotracheal intubation. Skin samples were collected, fixed and stained with hematoxylin and eosin for histological analysis. Dermal and epidermal thicknesses were measured using a Leica DMi8 microscope (Leica). Immunohistochemical analyses were performed using primary antibodies against CD68 (R&D Systems, MAB101141), Ki-67 (Cell Signaling Technology, 12202), IL-17A (Novus Biologicals, NBP1-72027) and IL-23 (Novus Biologicals, NBP1-76697), followed by detection using biotinylated secondary antibodies (Vector Laboratories) and diaminobenzidine (Vector Laboratories) visualization. Fluorescence measurements for IL-23-induced psoriasis were performed using primary antibodies against CD68 and Ki-67, followed by Alexa Fluor-conjugated secondary antibodies (Life Technologies). Fluorescence was analyzed using a Leica DMi8 microscope.
Anti-IL17A antibody (Ab, 60 µg) was administered by IP injection as a positive control on days 2, 5 and 8. […] CD68 and Ki-67 expression patterns were determined in skin sections from a representative of each group using immunofluorescence. i Ear skin and epidermis thickness, CD68 expression and percentage of Ki-67 cells were examined from 4’,6-diamidino-2-phenylindole-stained cells. Statistical differences between the induced case and other cases were analyzed and verified using a one-tailed Student’s t-test (*P < 0.05, **P < 0.01, ***P < 0.001).

SLE in MRL/lpr mice = test: MRL/lpr mouse model of SLE; type: in vivo; details: 30 mg/kg oral daily for 39 days; for Anti-dsDNA antibodies / Antinuclear antibody (ANA) / IgG in the kidney: compared with HCQ 60 mg/kg; for Alopecia and skin rashes: compared with vehicle and HCQ
Description: MRL/MpJ-Fas^lpr/J lupus-prone mice were purchased from Jackson Laboratory to evaluate the effects of ETI41 and ETI60 on the pathophysiology of genetic SLE. This study was approved by the IACUC, Ajou University (approval no. 2019-0046). Fourteen-week-old mice were assigned to the following treatment groups: vehicle (n = 3), ETI60 (n = 3), ETI41 (n = 4) and HCQ (n = 3). These groups were administered daily oral doses of 30 mg/kg ETI41 or ETI60, or 60 mg/kg HCQ for 39 days. All compounds were dissolved in a vehicle comprising ethanol, polyethylene glycol (PEG400) and distilled water at a 1:4:5 ratio. The body weights of the mice were measured every 3 days. Mice were anesthetized in an induction chamber with a gas mixture of 4% isoflurane in 70:30 […] and O2, delivered at a flow rate of 0.8 l/min. Upon completion of the treatment period, paired axillary and popliteal lymph nodes were collected and weighed. Blood samples were taken and maintained in BD Microtainer SST tubes (BD Biosciences), with serum isolated through centrifugation at 3,393g for 30 min at 4 °C. Serum markers, including complement component C3, ANA, anti-dsDNA and total IgG, were evaluated using ELISA kits (MyBioSource). Renal IgG levels were monitored by western blotting using anti-mouse IgG (Thermo Fisher Scientific) and β-actin antibodies (Bethyl Laboratories). Statistical significance among groups was analyzed using IBM SPSS Statistics (v.25.0; IBM Corporation), with statistical significance set at P < 0.05.
Fig. 5 Therapeutic efficacy of ETI41 and ETI60 in SLE mouse model. a Summary of the experimental validation of ETI41 and ETI60 in the MRL/lpr female mouse model of SLE. […] Statistical differences between the induced case and other cases were analyzed and verified using a one-tailed Student’s t-test (*P < 0.05, **P < 0.01, ***P < 0.001).

| SMILES | Dermal inflammatory cell infiltration (IMQ-induced psoriasis) | Dermal thickness (IMQ-induced psoriasis) | Epidermal acanthosis (IMQ-induced psoriasis) | IL-17A and IL-23 expression (IMQ-induced psoriasis) | Keratinocyte proliferation (IMQ-induced psoriasis) | PASI scores (IMQ-induced psoriasis) | Body weight (SLE in MRL/lpr mice) | Lymph node weights (SLE in MRL/lpr mice) | Anti-dsDNA antibodies (SLE in MRL/lpr mice) | Antinuclear antibody (ANA) (SLE in MRL/lpr mice) | IgG in the kidney (SLE in MRL/lpr mice) | Alopecia and skin rashes (SLE in MRL/lpr mice) | Complement C3 levels (SLE in MRL/lpr mice; serum) |
| --- | --- | --- | --- | --- | --- | --- | --- | --- | --- | --- | --- | --- | --- |
| Cc1cc2c(N)c3c(nc2n1CCCN(C)C)CCCCCC3 [ETI41] | inhibited | significantly reduced | significantly reduced | inhibited | significantly reduced | significantly reduced | prevented weight gain or loss | notably lower | reduced | reduced | reduced | substantially reduced |  |
| COc1ccc2c3c(N)c4c(nc3n(CCCN(C)C)c2c1)CCCC4 [ETI60] | inhibited | significantly reduced | significantly reduced | inhibited | significantly reduced | significantly reduced | prevented weight gain or loss | notably lower | reduced | reduced | reduced | substantially reduced | increased |
